Assay results as given in ChEMBL document CHEMBL1150977, “A quantitative analysis of kinase inhibitor selectivity” (Nat Biotechnol, 2008).

Molecular target: T1, Ephrin type-A receptor 6 (Homo sapiens, UniProt Q9UF33)
T1 sequence (Q9UF33 whole entry): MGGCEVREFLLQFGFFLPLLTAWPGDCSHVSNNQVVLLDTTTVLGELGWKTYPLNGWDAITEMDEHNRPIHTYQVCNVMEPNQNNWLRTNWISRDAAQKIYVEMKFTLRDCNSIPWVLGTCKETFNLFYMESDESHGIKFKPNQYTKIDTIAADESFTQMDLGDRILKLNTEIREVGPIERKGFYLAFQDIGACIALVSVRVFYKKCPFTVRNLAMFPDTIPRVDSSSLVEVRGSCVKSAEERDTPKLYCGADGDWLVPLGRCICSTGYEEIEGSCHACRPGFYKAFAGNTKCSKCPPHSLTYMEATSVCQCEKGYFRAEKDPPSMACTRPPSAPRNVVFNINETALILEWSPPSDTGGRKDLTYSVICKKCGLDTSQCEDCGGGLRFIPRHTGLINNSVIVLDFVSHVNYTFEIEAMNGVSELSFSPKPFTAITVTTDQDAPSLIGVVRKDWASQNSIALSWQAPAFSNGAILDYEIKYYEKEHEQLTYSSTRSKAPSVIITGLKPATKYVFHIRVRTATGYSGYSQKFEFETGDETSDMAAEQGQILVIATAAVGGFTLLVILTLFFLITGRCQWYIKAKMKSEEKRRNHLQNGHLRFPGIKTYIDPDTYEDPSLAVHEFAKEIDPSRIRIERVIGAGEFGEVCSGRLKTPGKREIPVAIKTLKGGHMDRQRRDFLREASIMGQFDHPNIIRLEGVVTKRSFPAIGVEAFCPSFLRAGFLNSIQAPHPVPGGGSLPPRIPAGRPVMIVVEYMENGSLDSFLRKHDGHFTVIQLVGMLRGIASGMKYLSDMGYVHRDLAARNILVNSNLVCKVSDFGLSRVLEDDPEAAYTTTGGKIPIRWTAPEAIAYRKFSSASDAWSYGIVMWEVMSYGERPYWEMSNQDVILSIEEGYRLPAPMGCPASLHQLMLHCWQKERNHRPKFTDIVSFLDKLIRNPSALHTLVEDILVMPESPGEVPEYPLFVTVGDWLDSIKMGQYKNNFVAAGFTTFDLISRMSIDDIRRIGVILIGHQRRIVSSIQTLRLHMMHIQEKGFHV

SMILES	Kd
Nc1nc(Nc2ccc(S(N)(=O)=O)cc2)nn1C(=O)c1c(F)cccc1F [JNJ-7706621]	> 10 µM
Oc1ccc(-c2nc(-c3ccncc3)c(-c3ccc(F)cc3)[nH]2)cc1 [SB-202190]	2.2 µM
COCC(=O)NC/C=C/c1ccc2ncnc(Nc3ccc(Oc4ccc(C)nc4)c(C)c3)c2c1 [CP-724714]	> 10 µM
NC(=O)c1ccc(-c2nc(-c3ccc4c(c3)OCO4)c(-c3ccccn3)[nH]2)cc1 [SB-431542]	> 10 µM

Molecular target: Protein kinase C theta type (Homo sapiens, UniProt Q04759)
Sequence (Q04759 whole entry): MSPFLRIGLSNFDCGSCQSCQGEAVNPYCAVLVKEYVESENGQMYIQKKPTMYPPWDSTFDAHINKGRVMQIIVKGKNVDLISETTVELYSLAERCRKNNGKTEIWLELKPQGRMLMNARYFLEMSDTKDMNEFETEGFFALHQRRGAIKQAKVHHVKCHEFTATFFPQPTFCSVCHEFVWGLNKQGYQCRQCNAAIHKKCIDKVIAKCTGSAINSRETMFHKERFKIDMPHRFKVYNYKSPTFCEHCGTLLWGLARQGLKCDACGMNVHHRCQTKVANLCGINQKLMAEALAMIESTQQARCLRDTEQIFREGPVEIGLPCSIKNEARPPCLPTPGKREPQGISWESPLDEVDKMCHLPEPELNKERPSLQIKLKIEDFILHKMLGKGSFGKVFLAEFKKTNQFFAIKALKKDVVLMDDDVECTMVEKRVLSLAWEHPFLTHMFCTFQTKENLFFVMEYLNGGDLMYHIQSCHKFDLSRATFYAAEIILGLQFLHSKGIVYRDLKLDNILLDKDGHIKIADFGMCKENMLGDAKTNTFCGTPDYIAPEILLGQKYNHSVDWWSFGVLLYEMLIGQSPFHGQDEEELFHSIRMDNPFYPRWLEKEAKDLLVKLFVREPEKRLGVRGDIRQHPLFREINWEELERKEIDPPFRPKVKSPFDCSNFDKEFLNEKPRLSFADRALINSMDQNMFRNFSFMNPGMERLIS

SMILES	Kd
CCOc1cc2ncc(C#N)c(Nc3ccc(F)c(Cl)c3)c2cc1NC(=O)/C=C/CN(C)C [PELITINIB]	> 10 µM
Oc1ccc(-c2nc(-c3ccncc3)c(-c3ccc(F)cc3)[nH]2)cc1 [SB-202190]	> 10 µM
COCC(=O)NC/C=C/c1ccc2ncnc(Nc3ccc(Oc4ccc(C)nc4)c(C)c3)c2c1 [CP-724714]	> 10 µM
NC(=O)c1ccc(-c2nc(-c3ccc4c(c3)OCO4)c(-c3ccccn3)[nH]2)cc1 [SB-431542]	> 10 µM

Molecular target: Protein kinase C delta type (Homo sapiens, UniProt Q05655)
Sequence (Q05655 whole entry): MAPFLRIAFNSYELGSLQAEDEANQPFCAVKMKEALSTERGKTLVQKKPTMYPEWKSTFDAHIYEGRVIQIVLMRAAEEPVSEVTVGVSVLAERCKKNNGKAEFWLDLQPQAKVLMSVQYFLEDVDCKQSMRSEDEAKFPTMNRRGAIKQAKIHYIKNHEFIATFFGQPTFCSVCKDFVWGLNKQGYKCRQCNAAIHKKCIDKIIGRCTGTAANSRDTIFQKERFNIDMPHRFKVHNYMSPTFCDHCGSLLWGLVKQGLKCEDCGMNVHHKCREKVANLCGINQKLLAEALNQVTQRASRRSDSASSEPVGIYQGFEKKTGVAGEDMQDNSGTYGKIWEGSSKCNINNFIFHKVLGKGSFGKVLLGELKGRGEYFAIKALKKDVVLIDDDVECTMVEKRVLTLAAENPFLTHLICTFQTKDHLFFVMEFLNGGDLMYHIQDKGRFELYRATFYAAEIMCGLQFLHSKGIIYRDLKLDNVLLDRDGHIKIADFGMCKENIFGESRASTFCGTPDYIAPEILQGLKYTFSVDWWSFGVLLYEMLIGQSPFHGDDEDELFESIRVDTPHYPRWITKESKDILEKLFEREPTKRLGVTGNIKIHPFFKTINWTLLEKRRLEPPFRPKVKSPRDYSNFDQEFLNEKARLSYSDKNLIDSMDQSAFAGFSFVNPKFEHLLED

SMILES	Kd
Nc1nc(Nc2ccc(S(N)(=O)=O)cc2)nn1C(=O)c1c(F)cccc1F [JNJ-7706621]	4.5 µM
Oc1ccc(-c2nc(-c3ccncc3)c(-c3ccc(F)cc3)[nH]2)cc1 [SB-202190]	> 10 µM
COCC(=O)NC/C=C/c1ccc2ncnc(Nc3ccc(Oc4ccc(C)nc4)c(C)c3)c2c1 [CP-724714]	> 10 µM
NC(=O)c1ccc(-c2nc(-c3ccc4c(c3)OCO4)c(-c3ccccn3)[nH]2)cc1 [SB-431542]	> 10 µM

Molecular target: T2, Cyclin-dependent kinase 11A (Homo sapiens, UniProt Q9UQ88)
T2 sequence (Q9UQ88 whole entry): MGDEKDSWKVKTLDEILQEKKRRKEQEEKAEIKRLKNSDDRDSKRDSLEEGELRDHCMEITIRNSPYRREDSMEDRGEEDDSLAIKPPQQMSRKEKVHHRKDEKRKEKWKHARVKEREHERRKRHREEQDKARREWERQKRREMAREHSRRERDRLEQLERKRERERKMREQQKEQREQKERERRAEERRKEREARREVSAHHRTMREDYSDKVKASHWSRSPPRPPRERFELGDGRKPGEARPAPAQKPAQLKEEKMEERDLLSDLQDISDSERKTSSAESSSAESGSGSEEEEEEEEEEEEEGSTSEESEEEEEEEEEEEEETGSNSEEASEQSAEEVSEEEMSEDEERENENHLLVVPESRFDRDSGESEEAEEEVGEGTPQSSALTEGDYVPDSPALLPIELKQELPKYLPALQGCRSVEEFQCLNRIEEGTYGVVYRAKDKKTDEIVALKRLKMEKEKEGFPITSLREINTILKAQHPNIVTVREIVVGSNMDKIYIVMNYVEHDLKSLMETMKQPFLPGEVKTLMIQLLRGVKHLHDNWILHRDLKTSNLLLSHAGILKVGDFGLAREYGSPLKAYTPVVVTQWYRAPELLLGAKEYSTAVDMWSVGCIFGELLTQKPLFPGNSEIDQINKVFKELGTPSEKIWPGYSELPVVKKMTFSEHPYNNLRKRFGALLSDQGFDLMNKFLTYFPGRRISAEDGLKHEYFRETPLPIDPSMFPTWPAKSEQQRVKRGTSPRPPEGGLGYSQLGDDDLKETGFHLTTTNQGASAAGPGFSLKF

SMILES	Kd
CCOc1cc2ncc(C#N)c(Nc3ccc(F)c(Cl)c3)c2cc1NC(=O)/C=C/CN(C)C [PELITINIB]	> 10 µM
Oc1ccc(-c2nc(-c3ccncc3)c(-c3ccc(F)cc3)[nH]2)cc1 [SB-202190]	> 10 µM
COCC(=O)NC/C=C/c1ccc2ncnc(Nc3ccc(Oc4ccc(C)nc4)c(C)c3)c2c1 [CP-724714]	> 10 µM
NC(=O)c1ccc(-c2nc(-c3ccc4c(c3)OCO4)c(-c3ccccn3)[nH]2)cc1 [SB-431542]	> 10 µM

Molecular target: 5'-AMP-activated protein kinase catalytic subunit alpha-1 (Homo sapiens, UniProt Q13131)
Sequence (Q13131 whole entry): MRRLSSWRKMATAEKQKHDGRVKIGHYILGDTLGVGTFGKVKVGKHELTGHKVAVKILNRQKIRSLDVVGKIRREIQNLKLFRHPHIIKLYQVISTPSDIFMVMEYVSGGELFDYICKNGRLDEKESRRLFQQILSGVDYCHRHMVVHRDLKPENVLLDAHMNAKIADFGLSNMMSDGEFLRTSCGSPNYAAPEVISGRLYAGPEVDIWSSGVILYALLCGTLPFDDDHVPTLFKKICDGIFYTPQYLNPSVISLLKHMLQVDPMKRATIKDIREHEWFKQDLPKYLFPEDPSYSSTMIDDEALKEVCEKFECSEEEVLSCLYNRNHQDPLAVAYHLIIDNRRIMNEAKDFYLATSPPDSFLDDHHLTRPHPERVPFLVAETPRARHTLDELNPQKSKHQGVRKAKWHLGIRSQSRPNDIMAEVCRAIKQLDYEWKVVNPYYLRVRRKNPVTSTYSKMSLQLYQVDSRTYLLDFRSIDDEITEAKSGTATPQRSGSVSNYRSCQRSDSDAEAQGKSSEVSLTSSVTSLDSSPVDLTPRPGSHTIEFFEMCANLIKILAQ

SMILES	Kd
CCOc1cc2ncc(C#N)c(Nc3ccc(F)c(Cl)c3)c2cc1NC(=O)/C=C/CN(C)C [PELITINIB]	> 10 µM
Oc1ccc(-c2nc(-c3ccncc3)c(-c3ccc(F)cc3)[nH]2)cc1 [SB-202190]	> 10 µM
COCC(=O)NC/C=C/c1ccc2ncnc(Nc3ccc(Oc4ccc(C)nc4)c(C)c3)c2c1 [CP-724714]	> 10 µM
NC(=O)c1ccc(-c2nc(-c3ccc4c(c3)OCO4)c(-c3ccccn3)[nH]2)cc1 [SB-431542]	> 10 µM

Molecular target: T3, Serine/threonine-protein kinase 3 (Homo sapiens, UniProt Q13188)
T3 sequence (Q13188 whole entry): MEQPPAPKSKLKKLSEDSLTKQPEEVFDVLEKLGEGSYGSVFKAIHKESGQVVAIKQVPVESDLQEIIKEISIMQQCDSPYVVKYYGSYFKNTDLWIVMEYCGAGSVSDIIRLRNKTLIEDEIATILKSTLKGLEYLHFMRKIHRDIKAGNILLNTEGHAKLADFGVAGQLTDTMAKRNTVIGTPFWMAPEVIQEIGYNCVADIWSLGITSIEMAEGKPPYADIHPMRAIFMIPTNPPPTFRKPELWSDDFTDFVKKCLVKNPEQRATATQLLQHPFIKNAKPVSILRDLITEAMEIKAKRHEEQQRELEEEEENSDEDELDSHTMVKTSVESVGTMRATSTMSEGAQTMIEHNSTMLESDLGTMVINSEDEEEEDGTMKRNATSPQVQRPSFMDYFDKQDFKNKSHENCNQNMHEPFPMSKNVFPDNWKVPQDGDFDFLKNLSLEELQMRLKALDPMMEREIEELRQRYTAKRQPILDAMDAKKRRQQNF

SMILES	Kd
Oc1ccc(-c2nc(-c3ccncc3)c(-c3ccc(F)cc3)[nH]2)cc1 [SB-202190]	> 10 µM
COCC(=O)NC/C=C/c1ccc2ncnc(Nc3ccc(Oc4ccc(C)nc4)c(C)c3)c2c1 [CP-724714]	> 10 µM
NC(=O)c1ccc(-c2nc(-c3ccc4c(c3)OCO4)c(-c3ccccn3)[nH]2)cc1 [SB-431542]	> 10 µM

Molecular target: T4, Tyrosine-protein kinase TXK (Homo sapiens, UniProt P42681)
T4 sequence (P42681 whole entry): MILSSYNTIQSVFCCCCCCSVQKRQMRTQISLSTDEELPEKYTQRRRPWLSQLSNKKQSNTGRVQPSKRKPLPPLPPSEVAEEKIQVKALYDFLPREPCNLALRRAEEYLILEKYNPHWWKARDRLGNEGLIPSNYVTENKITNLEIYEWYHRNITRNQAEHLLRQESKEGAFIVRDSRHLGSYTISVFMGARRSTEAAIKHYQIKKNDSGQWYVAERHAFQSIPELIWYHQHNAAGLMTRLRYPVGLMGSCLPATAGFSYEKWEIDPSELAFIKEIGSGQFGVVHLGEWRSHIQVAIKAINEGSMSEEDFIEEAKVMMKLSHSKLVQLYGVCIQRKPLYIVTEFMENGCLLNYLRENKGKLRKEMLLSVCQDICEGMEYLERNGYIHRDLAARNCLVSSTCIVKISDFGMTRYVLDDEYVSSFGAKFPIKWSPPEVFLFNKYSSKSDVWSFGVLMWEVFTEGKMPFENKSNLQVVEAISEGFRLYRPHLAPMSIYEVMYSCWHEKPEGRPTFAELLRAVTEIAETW

SMILES	Kd
CCOc1cc2ncc(C#N)c(Nc3ccc(F)c(Cl)c3)c2cc1NC(=O)/C=C/CN(C)C [PELITINIB]	5.5 µM
Nc1nc(Nc2ccc(S(N)(=O)=O)cc2)nn1C(=O)c1c(F)cccc1F [JNJ-7706621]	> 10 µM
Oc1ccc(-c2nc(-c3ccncc3)c(-c3ccc(F)cc3)[nH]2)cc1 [SB-202190]	> 10 µM
COCC(=O)NC/C=C/c1ccc2ncnc(Nc3ccc(Oc4ccc(C)nc4)c(C)c3)c2c1 [CP-724714]	> 10 µM
NC(=O)c1ccc(-c2nc(-c3ccc4c(c3)OCO4)c(-c3ccccn3)[nH]2)cc1 [SB-431542]	> 10 µM
